Experimental data from patent US20250320213A1, “Nitrogen-Containing Heterocyclic Compounds” (Pfizer Inc., priority 2024, published 2025).
Where two headings read alike, the source gives them in different places.

Experiments:
STAT6 = target: T1, STAT6 (Homo sapiens, UniProt P42226); assay: STAT6 Reporter Luciferase Assay (IL-13 stimulated HaCaT keratinocyte NanoLuc reporter cells); format: cell-based; conditions: read-out: Reporter EC50
T1 construct: stably transfected HaCaT keratinocyte cell line, which expresses NanoLuc luciferase reporter gene under the transcriptional control of the STAT6 responsive promoter; endogenous in cells; host or cells: HaCaT keratinocyte reporter cell line (stably transfected with a NanoLuc reporter)
T1 sequence (P42226 1-847): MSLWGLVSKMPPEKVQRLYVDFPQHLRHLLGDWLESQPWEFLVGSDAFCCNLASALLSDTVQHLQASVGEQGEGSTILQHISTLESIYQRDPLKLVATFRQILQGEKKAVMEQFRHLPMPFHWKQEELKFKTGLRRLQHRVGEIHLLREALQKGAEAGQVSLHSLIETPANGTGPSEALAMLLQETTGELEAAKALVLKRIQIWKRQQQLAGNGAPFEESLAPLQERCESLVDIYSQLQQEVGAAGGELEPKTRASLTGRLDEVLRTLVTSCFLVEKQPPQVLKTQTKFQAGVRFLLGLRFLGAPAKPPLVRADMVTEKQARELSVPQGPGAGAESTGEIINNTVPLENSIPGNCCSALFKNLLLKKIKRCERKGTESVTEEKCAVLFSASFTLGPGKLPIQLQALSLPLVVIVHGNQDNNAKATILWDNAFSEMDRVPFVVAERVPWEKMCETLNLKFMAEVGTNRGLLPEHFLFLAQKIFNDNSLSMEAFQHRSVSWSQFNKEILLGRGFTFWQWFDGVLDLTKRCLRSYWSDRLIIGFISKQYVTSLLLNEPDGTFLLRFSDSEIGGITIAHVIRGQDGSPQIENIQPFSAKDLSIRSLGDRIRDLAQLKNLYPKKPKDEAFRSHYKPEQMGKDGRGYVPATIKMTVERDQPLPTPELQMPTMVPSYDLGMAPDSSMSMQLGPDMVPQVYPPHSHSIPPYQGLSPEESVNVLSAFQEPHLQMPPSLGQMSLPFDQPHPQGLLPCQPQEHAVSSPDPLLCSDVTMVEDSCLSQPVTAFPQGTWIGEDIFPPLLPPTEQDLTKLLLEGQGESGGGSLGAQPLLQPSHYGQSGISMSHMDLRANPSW
How it was run: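 Cells were plated overnight, washed, exposed to compound for two hours, stimulated with IL-13 (0.12 nM final) for four hours at 37 °C, and then lysed with Nano-Glo substrate for 15 min before luminescence reading.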

[1] = test system: CCL17 secretion in peripheral human whole blood; assay: Human Whole Blood (HWB) CCL17 TR-FRET Assay (IL-13 stimulated CCL17 secretion); format: cell-based
How it was run: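 IC50 comes from serum CCL17 measured by a TR-FRET sandwich assay (16 h at room temperature, 665/615 nm ratio). Beforehand, blood in sodium heparin was exposed to an 11-point, 3-fold compound series for 2 h at 37°C and then to 10 ng/mL IL-13 for 48 h.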

[2] = IL-13 stimulated HaCaT STAT6 NanoLuc reporter cells
[3] = Homo sapiens, 48 h, human whole blood, IL-13 stimulated
[4] = human whole blood, IL-13 stimulated, 48 hours
[5] = STAT6 NanoLuc luciferase reporter, IL-13 stimulated HaCaT keratinocyte cells
[6] = Homo sapiens, 48 h, inhibition of CCL17 secretion in human whole blood, 10 ng/mL IL13, 48 hours

Row | SMILES | EC50 (STAT6; [2]) [nM] | IC50 [1, 3] [nM] | other results
1 | C[C@H]1Cc2c(c(C(=O)NCc3ccc(NC(=O)N(C)C)cc3)nn2C)CN1c1ccc(-c2nccn2C)cn1 [Example 259, (S)-N-(4-(3,3-dimethylureido)benzyl)-1,6-dimethyl-5-(5-(1-methyl-1H-imidazol-2-yl)pyridin-2-yl)-4,5,6,7-tetrahydro-1H-pyrazolo[4,3-c]pyridine-3-carboxamide] | 2 | 30 | –
2 | CCOC(=O)Nc1ccc(CNC(=O)c2nn(C(C)C)c3c2CN(c2ncc(C(=O)N(C)C)cn2)C[C@@H]3C)cc1 [Example 503, ethyl (S)-(4-((5-(5-(dimethylcarbamoyl)pyrimidin-2-yl)-1-isopropyl-7-methyl-4,5,6,7-tetrahydro-1H-pyrazolo[4,3-c]pyridine-3-carboxamido)methyl)phenyl)carbamate] | 1 | 13 | –
3 | CCC1Cc2c(c(C(=O)NCc3ccc(NC(=O)N(C)C)cc3)nn2C(C)C)CN1c1ccc(C(=O)N(C)C)cn1 (single isomer, unassigned) [Example 268, rel-(R or S)-5-(5-(dimethylcarbamoyl)pyridin-2-yl)-N-(4-(3,3-dimethylureido)benzyl)-6-ethyl-1-isopropyl-4,5,6,7-tetrahydro-1H-pyrazolo[4,3-c]pyridine-3-carboxamide] | 3 | – | IC50 [1, 4]: 21 nM
4 | C[C@H]1CN(c2ccc(C(=O)N(C)C)cn2)Cc2c(C(=O)NCc3ccc(NC(=O)N(C)C)cc3)nn(CC(F)(F)F)c21 (single isomer, unassigned) [Example 307] | 0.5 | 7 | –
5 | CN(C)C(=O)Nc1ccc(CNC(=O)c2nn(C3(C(F)(F)F)CC3)c3c2CN(c2ccc(C(=O)N(C)C)cn2)CC3)cc1 [Example 320, 5-(5-(dimethylcarbamoyl)pyridin-2-yl)-N-(4-(3,3-dimethylureido)benzyl)-1-(1-(trifluoromethyl)cyclopropyl)-4,5,6,7-tetrahydro-1H-pyrazolo[4,3-c]pyridine-3-carboxamide] | 5 | 135 | –
6 | CC(C)n1nc(C(=O)NCc2ccc(NC(=O)N(C)C)cc2)c2c1[C@@H](C)CN(c1ccc(C(=O)O)cn1)C2 [Example 504, (S)-6-(3-((4-(3,3-dimethylureido)benzyl)carbamoyl)-1-isopropyl-7-methyl-1,4,6,7-tetrahydro-5H-pyrazolo[4,3-c]pyridin-5-yl)nicotinic acid] | 874 | > 21200 | –
7 | CNC(=O)c1ccc(CNC(=O)c2nn(C(C)C)c3c2CN(c2ccc(C(=O)N(C)C)cn2)C[C@@H]3C)cc1 [Example 341, (S)-5-(5-(dimethylcarbamoyl)pyridin-2-yl)-1-isopropyl-7-methyl-N-(4-(methylcarbamoyl)benzyl)-4,5,6,7-tetrahydro-1H-pyrazolo[4,3-c]pyridine-3-carboxamide] | 4 | 28 | –
8 | COC1(C)CN(C(=O)Nc2ccc(CNC(=O)c3nn(C(C)C)c4c3CN(c3ccc(C(=O)N(C)C)cn3)CC4)cc2)C1 [Example 165, 5-(5-(dimethylcarbamoyl)pyridin-2-yl)-1-isopropyl-N-(4-(3-methoxy-3-methylazetidine-1-carboxamido)benzyl)-4,5,6,7-tetrahydro-1H-pyrazolo[4,3-c]pyridine-3-carboxamide] | – | – | EC50 (STAT6; [5]): 14 nM; IC50 [1, 6]: 156 nM
9 | CC(C)n1nc(C(=O)NCc2ccc(NC(=O)N(C)C)cc2)c2c1CCN(c1ccc(N3C(=O)CC[C@@H]3CO)cn1)C2 [Example 88, (R)-N-(4-(3,3-dimethylureido)benzyl)-5-(5-(2-(hydroxymethyl)-5-oxopyrrolidin-1-yl)pyridin-2-yl)-1-isopropyl-4,5,6,7-tetrahydro-1H-pyrazolo[4,3-c]pyridine-3-carboxamide] | – | – | EC50 (STAT6; [5]): 424 nM; IC50 [1, 6]: 2080 nM
10 | CC(C)n1nc(C(=O)NCc2ccc(NC(=O)N3CCC4(CC3)CN(C)C4)cc2)c2c1[C@@H](C)CN(c1ccc(-n3ccccc3=O)cn1)C2 [Example 633, (S)-1-isopropyl-7-methyl-N-(4-(2-methyl-2,7-diazaspiro[3.5]nonane-7-carboxamido)benzyl)-5-(2-oxo-2H-[1,3′-bipyridin]-6′-yl)-4,5,6,7-tetrahydro-1H-pyrazolo[4,3-c]pyridine-3-carboxamide] | 2 | – | IC50 ([1]; Homo sapiens, 48 h, human whole blood, 10 ng/mL IL13, 48 hours): 13 nM
11 | CC(C)n1nc(C(=O)NCc2ccc(NC(=O)N(C)C)cc2)c2c1CCN(c1ccc(C(=O)N(C)C)cn1)[C@@H]2C (single isomer, unassigned) [Example 506] | 2 | 14 | –
12 | CN(C)C(=O)Nc1ccc(CN2CCCn3nc4c(c3C2=O)CN(c2ccc(C(=O)N(C)C)cn2)CC4)cc1 [Example 252, 6-(10-(4-(3,3-Dimethylureido)benzyl)-11-oxo-1,3,4,7,8,9,10,11-octahydro-2H-pyrido[4′,3′:3,4]pyrazolo[1,5-a][1,4]diazepin-2-yl)-N,N-dimethylnicotinamide] | 385 | 1130 | –
13 | CC(C)n1nc(C(=O)NCc2ccc(NC(=O)N(C)C)cc2)c2c1CCN(c1ccc(-n3ccnn3)cn1)C2 [Example 64, 5-(5-(1H-1,2,3-triazol-1-yl)pyridin-2-yl)-N-(4-(3,3-dimethylureido)benzyl)-1-isopropyl-4,5,6,7-tetrahydro-1H-pyrazolo[4,3-c]pyridine-3-carboxamide] | – | – | EC50 (STAT6; [5]): 4 nM; IC50 [1, 6]: 73 nM
14 | CC(C)n1nc(C(=O)NCc2ccc(NC(=O)N(C)C)cc2)c2c1CCN(c1ncc(-c3nccn3C)cn1)C2 [Example 34, N-(4-(3,3-Dimethylureido)benzyl)-1-isopropyl-5-(5-(1-methyl-1H-imidazol-2-yl)pyrimidin-2-yl)-4,5,6,7-tetrahydro-1H-pyrazolo[4,3-c]pyridine-3-carboxamide] | – | – | EC50 (STAT6; [5]): 8 nM; IC50 [1, 6]: 71 nM
15 | CC(C1CC1)n1nc(C(=O)NCc2ccc(NC(=O)N(C)C)cc2)c2c1CCN(c1ccc(C(=O)N(C)C)cn1)C2 (single isomer, unassigned) [Example 87, rel-(R or S)-1-(1-cyclopropylethyl)-5-(5-(dimethylcarbamoyl)pyridin-2-yl)-N-(4-(3,3-dimethylureido)benzyl)-4,5,6,7-tetrahydro-1H-pyrazolo[4,3-c]pyridine-3-carboxamide] | – | – | EC50 (STAT6; [5]): 15 nM; IC50 [1, 6]: 118 nM
16 | CCc1nc(C(=O)NCc2ccc(NC(=O)N(C)C)cc2)c2n1C(C)CN(c1ccc(C(=O)N(C)C)cc1)C2 (racemic) [Example 399, rac-(R)-7-(4-(dimethylcarbamoyl)phenyl)-N-(4-(3,3-dimethylureido)benzyl)-3-ethyl-5-methyl-5,6,7,8-tetrahydroimidazo[1,5-a]lpyrazine-1-carboxamide] | 2 | 9 | –
17 | CC(C)n1nc(C(=O)NCc2ccc(NC(=O)N(C)C)cc2)c2c1[C@@H](C)CN(c1ccc(C(=O)N3CCN(C)CC3)cc1)C2 [Example 706, (S)-N-(4-(3,3-dimethylureido)benzyl)-1-isopropyl-7-methyl-5-(4-(4-methylpiperazine-1-carbonyl)phenyl)-4,5,6,7-tetrahydro-1H-pyrazolo[4,3-c]pyridine-3-carboxamide] | 27 | – | IC50 ([1]; Homo sapiens, 48 h, human whole blood, IL-13 10 ng/mL): 191 nM
18 | CCn1nc(C(=O)NCc2ccc(C(=O)NC)cc2)c2c1C(C(F)(F)F)CN(c1ccc(C(=O)N(C)C)cn1)C2 (single isomer, unassigned) [Example 467, rel-(R or S)-5-(5-(dimethylcarbamoyl)pyridin-2-yl)-1-ethyl-N-(4-(methylcarbamoyl)benzyl)-7-(trifluoromethyl)-4,5,6,7-tetrahydro-1H-pyrazolo[4,3-c]pyridine-3-carboxamide] | 315 | – | IC50 [1, 4]: 2500 nM
19 | CCn1nc(C(=O)NCc2ccc(NC(=O)N(C)C)cc2)c2c1CCN(c1ccc(C(=O)N(C)C)cn1)[C@H]2C [Example 512, (S)-5-(5-(dimethylcarbamoyl)pyridin-2-yl)-N-(4-(3,3-dimethylureido)benzyl)-1-ethyl-4-methyl-4,5,6,7-tetrahydro-1H-pyrazolo[4,3-c]pyridine-3-carboxamide] | 240 | 2510 | –
